From patent US4623656A, “Method for inhibiting monoamine oxidase-A and treating depression by administering 3-N-methyl-thioxanthen-9-one carboxamide 10,10-dioxide” (priority 1984, dated 1986)
Values belong to the molecule of their own block, whether it stands above or below them.

How the values were obtained:
[1] = biological target: T1, MAO-A (Rattus norvegicus, UniProt P21396); test: In vitro MAO-A inhibition, double-label assay, mitochondrial extracts of rat brain; type: biochemical
T1 construct: mitochondrial extracts of rat or human brain; from tissue; host or cells: rat brain, mitochondrial extract
T1 sequence (P21396 1-526): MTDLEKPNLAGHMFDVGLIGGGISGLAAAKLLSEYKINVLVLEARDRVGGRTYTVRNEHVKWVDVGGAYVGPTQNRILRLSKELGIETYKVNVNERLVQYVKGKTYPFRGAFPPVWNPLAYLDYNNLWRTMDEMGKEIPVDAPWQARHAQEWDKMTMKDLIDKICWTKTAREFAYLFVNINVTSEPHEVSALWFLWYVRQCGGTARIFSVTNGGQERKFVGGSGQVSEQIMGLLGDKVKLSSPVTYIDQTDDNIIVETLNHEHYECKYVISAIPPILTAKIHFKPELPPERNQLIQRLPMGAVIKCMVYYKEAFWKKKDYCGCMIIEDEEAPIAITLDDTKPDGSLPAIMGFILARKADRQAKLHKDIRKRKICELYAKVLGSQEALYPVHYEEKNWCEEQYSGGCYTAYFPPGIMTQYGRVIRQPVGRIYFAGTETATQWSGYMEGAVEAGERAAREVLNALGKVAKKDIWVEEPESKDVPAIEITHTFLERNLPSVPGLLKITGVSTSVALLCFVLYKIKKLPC
Method: (§1) MAO was assayed with [^3 H] serotonin (0.2 mM, 5 Ci/mol) and [^14 C] β-phenethylamine (10 μM, 3 Ci/mol) as substrates in a double-label assay (White and Glassman, J. Neurochem 29:987-97 1977).

[2] = biological target: T2, MAO-A (Homo sapiens, UniProt P21397); test: In vitro MAO-A inhibition, double-label assay, mitochondrial extracts of human brain; type: biochemical
T2 construct: mitochondrial extracts of rat or human brain; from tissue; host or cells: human brain, mitochondrial extract
T2 sequence (P21397 1-527): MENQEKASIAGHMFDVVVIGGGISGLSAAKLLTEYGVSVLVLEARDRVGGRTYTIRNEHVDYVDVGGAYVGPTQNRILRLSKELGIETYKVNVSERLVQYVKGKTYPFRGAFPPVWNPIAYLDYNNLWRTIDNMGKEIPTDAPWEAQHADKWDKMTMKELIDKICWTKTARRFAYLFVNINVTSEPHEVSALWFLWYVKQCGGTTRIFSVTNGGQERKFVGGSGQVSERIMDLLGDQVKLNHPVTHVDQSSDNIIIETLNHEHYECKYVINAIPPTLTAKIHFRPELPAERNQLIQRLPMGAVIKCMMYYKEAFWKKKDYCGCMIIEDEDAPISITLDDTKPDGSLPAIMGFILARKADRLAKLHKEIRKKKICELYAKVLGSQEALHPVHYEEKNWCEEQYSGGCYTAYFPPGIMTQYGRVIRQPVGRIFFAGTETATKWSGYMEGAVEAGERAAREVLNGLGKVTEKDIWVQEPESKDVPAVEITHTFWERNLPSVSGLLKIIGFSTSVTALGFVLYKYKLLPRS
Method: as §1

[3] = biological target: MAO-A; test: Kinetic mechanism of MAO-A inhibition (single substrate varied); type: biochemical, rat or human
Method: For studies of the kinetic mechanism of inhibition, the above method was used, except that a single substrate (serotonin or tyramine) was varied over a 10-fold concentration range that included the Km concentration. MAO activity was determined in the absence and presence of the compound under test at each substrate concentration in duplicate assays.

[4] = tested on: MAO-A (brain); test: In vivo inhibition of brain MAO-A in orally pretreated rats; design: species or system rat; settings: for Percentage Inhibition of MAO-A, Brain: 3 hr after oral dosing; for Inhibition of brain MAO-A by the time of tyramine administration: single oral dose, equipotent doses for tyramine test
Method: (§2) To determine MAO inhibition in brains and livers of rats pretreated with reversible inhibitors, it was necessary to use an assay procedure that minimized dilution of the inhibitor. Thus, high concentrations of brain tissue homogenates were incubated for very short incubation times. For brain assays, initial tissue was 3-fold diluted into each assay. Because of the very high MAO activity in liver homogenates, further dilution of tissue was necessary in order to obtain reliable data. In this case, three different homogenate concentrations were assayed, and precent inhibition was extrapolated to zero tissue dilution. Substrate concentrations were not saturating, but were chosen relative to Km values for serotonin and phenethylamine in order to give an estimate of MAO-A and B, respectively.
(§3) Brains from pretreated male Sprague-Dawley rats (sacrificed 3 hours after oral dosing), were homogenized in a buffer consisting of 0.1M potassium phosphate and 5% sucrose (pH 7.4) at a 1:1 tissue wt/buffer volume ratio, using a motorized Teflon/glass homogenizer. MAO-A and B were determined by incubating 100 μl of tissue homogenate with 50 μl of a double-label substrate mixture to give final concentrations of [^3 H] serotonin, 0.4 mM (5 Ci/mol); and [^14 C] β-phenethylamine, 20 μM (3 Ci/mol). For blank assays 100 μl portions of homogenate were pre-incubated at 37° C. with pargyline (4 mM) before substrate addition. Incubations were at 37° C. for 30 sec. Assay mixtures were then acidified and products extracted as in the above in vitro method (White and Glassman). Liver tissue was homogenized in the above phosphate-sucrose buffer at a 1:5 tissue wt/buffer volume ratio. Portions (5, 10 and 50 μ l) of each homogenate were assayed with 50 μl of the above double-label substrate mixture in a total assay volume of 150 μl 0.067M potassium phosphate, pH 7.4. Blank assays included the same amounts of homogenate pre-incubated with 4 mM pargyline for 15 min at 37° C. After addition of substrates, mixtures were incubated at 37° C. for 20 sec, acidified, and products extracted as above. Percent inhibition for each liver homogenate was obtained by plotting % inhibition vs. reciprocal of tissue concentration and extrapolating back to zero dilution.

[5] = tested on: MAO-A (liver); test: In vivo inhibition of liver MAO-A in orally pretreated rats; design: species or system rat; settings: for Percentage Inhibition of MAO-A, Liver: 3 hr after oral dosing, extrapolated to zero tissue dilution; for Inhibition of liver MAO-A by the time of tyramine administration: single oral dose, equipotent doses for tyramine test
Method: as §2, §3

[6] = tested on: MAO-B (brain); test: In vivo inhibition of brain MAO-B in orally pretreated rats; design: species or system rat; settings: 12.5-50 mg/kg p.o., 3 hr after oral dosing
Method: as §2
(§4) Brains from pretreated male Sprague-Dawley rats (sacrificed 3 hours after oral dosing), were homogenized in a buffer consisting of 0.1M potassium phosphate and 5% sucrose (pH 7.4) at a 1:1 tissue wt/buffer volume ratio, using a motorized Teflon/glass homogenizer. MAO-A and B were determined by incubating 100 μl of tissue homogenate with 50 μl of a double-label substrate mixture to give final concentrations of [^3 H] serotonin, 0.4 mM (5 Ci/mol); and [^14 C] β-phenethylamine, 20 μM (3 Ci/mol). […]

[7] = tested on: MAO-B (liver); test: In vivo inhibition of liver MAO-B in orally pretreated rats; design: species or system rat; settings: 12.5-50 mg/kg p.o., 3 hr after oral dosing
Method: as §2, §4

[8] = tested on: MAO; test: Time course of in vivo MAO inhibition after oral dosing (other experiments, tissue not stated); design: species or system rat; settings: oral dose of 50 mg/Kg
Method: as §2
as §3, with “([…]),” for “(sacrificed 3 hours after oral dosing),”, “Percent inhibition for each liver homogenate was obtained by plotting % inhibition vs. reciprocal of tissue concentration and extrapolating back to zero dilution.” left out

[9] = tested on: hypertensive activity; test: Hypertensive activity with orally ingested tyramine in test animals; type: in vivo; settings: oral antidepressant doses prior to orally ingested tyramine
[10] = tested on: tetrabenazine-induced sedation; test: Prevention of tetrabenazine-induced sedation; type: in vivo, Charles River CD-1 male mice
Method: Charles River CD-1 male mice (18-22 gm) were pretreated orally with various doses of Compound I or the reference standard, phenelzine, 60 min, 3 hr, or 5 hr before injection of tetrabenazine (35 mg/kg i.p.). […] Thirty minutes after injection of tetrabenazine, each mouse was scored on an arbitrary scale from one to four according to Vernier et al., ([…] Syomp. on Psychosomatic Medicine, J. H. Nodin and J. H. Moyer Eds., Lea and Febiger, Philadelphia, 1962, pp 683-90) for both depression of exploratory behaviour and presence or absence of blepharoptosis. Ratings were converted to a percent of rating received by mice receiving […] prior to tetrabenazine administration.

[11] = read-out: I50, inhibition of MAO-A

Inhibition of MAO-A (in words) [1]: potent selective inhibition of MAO-A
IC50 [1, 11]: 50 nM
Inhibition of MAO-A (in words) [2]: potent selective inhibition of MAO-A
IC50 [2, 11]: 50 nM
Ki ([3]; serotonin as substrate, mitochondrial extracts of rat or human brain): 16 nM
Hypertensive activity (in words) [9]: No significant hypertensive activity
SMILES: CNC(=O)c1ccc2c(c1)S(=O)(=O)c1ccccc1C2=O [Compound I, 3-N-methylcarbamoylthioxanthen-9-one 10,10-dioxide]
Mechanism of inhibition ([3]; vs. the substrates, serotonin or tyramine): competitive
Percentage Inhibition of MAO-A, Brain ([4]; 12.5 mg/kg p.o.): 37 ± 16%
Percentage Inhibition of MAO-A, Brain ([4]; 25 mg/kg p.o.): 49 ± 10%
Percentage Inhibition of MAO-A, Brain ([4]; 50 mg/kg p.o.): 78 ± 2%
Inhibition of brain MAO-A by the time of tyramine administration [4]: approximately 80%
Percentage Inhibition of MAO-A, Liver ([5]; 12.5 mg/kg p.o.): 79 ± 5%
Percentage Inhibition of MAO-A, Liver ([5]; 25 mg/kg p.o.): 94 ± 4%
Percentage Inhibition of MAO-A, Liver ([5]; 50 mg/kg p.o.): 92 ± 4%
Inhibition of liver MAO-A by the time of tyramine administration [5]: ≥ 90%
Inhibition of MAO-B, brain [6]: no significant inhibition of MAO-B in either tissue
Inhibition of MAO-B, liver [7]: no significant inhibition of MAO-B in either tissue
Reversibility of the in vivo inhibition [8]: indicating reversibility of the in vivo inhibition
Time of maximum inhibition [8]: 3 to 7 h
Inhibition at 24 hours after dosing ([8]; 24 hours after dosing): negligible
ED50 ([10]; Mus musculus, 1.5 h, oral, 90 minutes, tetrabenazine 35 mg/kg i.p.): 49 ± 10 mg/kg
Prevention of tetrabenazine-induced sedation (in words) ([10]; oral, 90 minutes, tetrabenazine 35 mg/kg i.p.): dose-dependent prevention of tetrabenazine-induced sedation
ED50 at 3 hr after treatment (in words) ([10]; oral, 3 hr after treatment, tetrabenazine 35 mg/kg i.p.): essentially the same as those found at 90 min
ED50 at 5 hr after treatment (in words) ([10]; oral, 5 hr after treatment, tetrabenazine 35 mg/kg i.p.): essentially the same as those found at 90 min

SMILES: NNCCc1ccccc1 [phenelzine, reference compound]
Inhibition of brain MAO-A by the time of tyramine administration [4]: approximately 80%
Inhibition of liver MAO-A by the time of tyramine administration [5]: ≥ 90%

SMILES: COc1cc2c(cc1OC)C1CC(=O)C(CC(C)C)CN1CC2 (stereo not drawn) [tetrabenazine, reference compound]
Treated mice remaining motionless with marked blepharoptosis ([10]; tetrabenazine 35 mg/kg i.p. (challenge agent)): 90-100%
